Assay results reported in US8497278B2, “Imidazo[1,2-a]pyridine compounds” (priority 2008, dated 2013).

Each compound was assayed on central benzodiazepine receptors (assay: Central benzodiazepine receptor binding (test of Speth et al.)). Details: 1000 nM of the compound.
Procedure: Compounds of the invention were assessed for their binding to the benzodiazepine receptor by the test of Speth et al. [Life Sci. 24, 351 (1979)] for central benzodiazepine receptors and LeFur et al. [Life Sci. 33, 449 (1983)] for peripheral receptors. The compounds were tested first at 1.0E-09, 1.0E-07 and 1.0E-05 M in single determination. […] The specific ligand binding to the receptor is defined as the difference between the total binding and the nonspecific binding determined in the presence of an excess of unlabelled ligand. In each experiment, the respective reference compound was tested concurrently with the test compounds in order to assess the assay suitability. It was tested at several concentrations (for IC50 value determination), and the data were compared with historical values. The assay was rendered valid if suitability criteria were met.
BZD central binding data for the compounds is provided in Table 3, wherein is provided the percent inhibition of central BZD in the presence of 1000 nM of the compound.

Structure (SMILES)	% Inhibition at 1000 nM for CBZD
c1ccc(-c2nc3ccccn3c2Cn2nccn2)cc1 [Compound 51, 3-((2H-1,2,3-triazol-2-yl)methyl)-2-phenylH-imidazo[1,2-a]pyridine]	++ (percentage of inhibition of central BZD site binding is greater than 80% in the presence of 1000 nM of the compound)
Fc1ccc(-c2nc3ccccn3c2Cn2cncn2)cc1 [Compound 54, 3-((1H-1,2,4-triazol-1-yl)methyl)-2-(4-fluorophenyl)H-imidazo[1,2-a]pyridine]	++ (percentage of inhibition of central BZD site binding is greater than 80% in the presence of 1000 nM of the compound)
Fc1ccc2nc(-c3ccc(Cl)cc3)c(Cn3cncn3)n2c1 [Compound 55, 3-((1H-1,2,4-triazol-1-yl)methyl)-2-(4-chlorophenyl)-6-fluoroH-imidazo[1,2-a]pyridine]	++ (percentage of inhibition of central BZD site binding is greater than 80% in the presence of 1000 nM of the compound)
Cc1ccc(-c2nc3c(Cl)cc(Cl)cn3c2Cn2cccn2)cc1 [Compound 65, 3-((1H-pyrazol-1-yl)methyl)-6,8-dichloro-2-p-tolylimidazo[1,2-a]pyridine]	++ (percentage of inhibition of central BZD site binding is greater than 80% in the presence of 1000 nM of the compound)
Clc1ccc(-c2nc3ccccn3c2Cn2cncn2)cc1 [Compound 67, 3-((1H-1,2,4-triazol-1-yl)methyl)-2-(4-chlorophenyl)imidazo[1,2-a]pyridine]	++ (percentage of inhibition of central BZD site binding is greater than 80% in the presence of 1000 nM of the compound)
CNC(=O)c1ncnn1Cc1c(-c2ccc(C)cc2)nc2ccc(C)cn12 [Compound 68, 2-(6-Methyl-2-p-tolyl-imidazo[1,2-a]pyridin-3-ylmethyl)-2H-[1,2,4]triazole-3-carboxylic acid methylamide]	++ (percentage of inhibition of central BZD site binding is greater than 80% in the presence of 1000 nM of the compound)
Cc1ccc(-c2nc3ccc(C)cn3c2Cn2ncnc2C(N)=O)cc1 [Compound 69, 2-(6-Methyl-2-p-tolyl-imidazo[1,2-a]pyridin-3-ylmethyl)-2H-[1,2,4]triazole-3-carboxylic acid amide]	++ (percentage of inhibition of central BZD site binding is greater than 80% in the presence of 1000 nM of the compound)
Cc1ccc(-c2nc3ccc(C)cn3c2Cn2ncnc2C(=O)N(C)C)cc1 [Compound 70, 2-(6-Methyl-2-p-tolyl-imidazo[1,2-a]pyridin-3-ylmethyl)-2H-[1,2,4]triazole-3-carboxylic acid dimethylamide]	+ (percentage of inhibition of central BZD site binding is greater than 50% but less than 80% in the presence of 1000 nM of the compound)
Cc1ccc(-c2nc3ccc(C)cn3c2Cn2ccnc2C(=O)N(C)C)cc1 [Compound 71, N,N-Dimethyl-1-((6-methyl-2-p-tolylH-imidazo[1,2-a]pyridin-3-yl)methyl)-1H-imidazole-2-carboxamide]	+ (percentage of inhibition of central BZD site binding is greater than 50% but less than 80% in the presence of 1000 nM of the compound)
CN(C)C(=O)c1ncnn1Cc1c(-c2ccc(Cl)cc2)nc2ccccn12 [Compound 74, 1-((2-(4-chlorophenyl)imidazo[1,2-a]pyridin-3-yl)methyl)-N,N-dimethyl-1H-1,2,4-triazole-5-carboxamide]	++ (percentage of inhibition of central BZD site binding is greater than 80% in the presence of 1000 nM of the compound)
CN(C)C(=O)c1ncn(Cc2c(-c3ccc(Cl)cc3)nc3ccccn23)n1 [Compound 75, 1-((2-(4-chlorophenyl)imidazo[1,2-a]pyridin-3-yl)methyl)-N,N-dimethyl-1H-1,2,4-triazole-3-carboxamide]	++ (percentage of inhibition of central BZD site binding is greater than 80% in the presence of 1000 nM of the compound)
CNC(=O)c1cc(C)nn1Cc1c(-c2ccc(Cl)cc2)nc2ccccn12 [Compound 79, 1-((2-(4-chlorophenyl)imidazo[1,2-a]pyridin-3-yl)methyl)-N,3-dimethyl-1H-pyrazole-5-carboxamide]	+ (percentage of inhibition of central BZD site binding is greater than 50% but less than 80% in the presence of 1000 nM of the compound)
CNC(=O)c1cc(C)n(Cc2c(-c3ccc(Cl)cc3)nc3ccccn23)n1 [Compound 80, 1-((2-(4-chlorophenyl)imidazo[1,2-a]pyridin-3-yl)methyl)-N,5-dimethyl-1H-pyrazole-3-carboxamide]	++ (percentage of inhibition of central BZD site binding is greater than 80% in the presence of 1000 nM of the compound)
CON(C)C(=O)c1ncnn1Cc1c(-c2ccc(Cl)cc2)nc2ccc(Cl)cn12 [Compound 82, 2-[6-Chloro-2-(4-chloro-phenyl)-imidazo[1,2-a]pyridin-3-ylmethyl]-2H-[1,2,4]triazole-3-carboxylic acid methoxy-methyl-amide]	++ (percentage of inhibition of central BZD site binding is greater than 80% in the presence of 1000 nM of the compound)
NC(=O)c1nccn1Cc1c(-c2ccc(Cl)cc2)nc2cccnn12 [Compound 87, 1-((2-(4-chlorophenyl)imidazo[1,2-b]pyridazin-3-yl)methyl)-1H-imidazole-2-carboxamide]	+ (percentage of inhibition of central BZD site binding is greater than 50% but less than 80% in the presence of 1000 nM of the compound)
NC(=O)c1ncnn1Cc1c(-c2ccc(Cl)cc2)nc2cccnn12 [Compound 89, 1-((2-(4-chlorophenyl)imidazo[1,2-b]pyridazin-3-yl)methyl)-1H-1,2,4-triazole-5-carboxamide]	++ (percentage of inhibition of central BZD site binding is greater than 80% in the presence of 1000 nM of the compound)
Cc1ccc(-c2nc3ccc(C)cn3c2Cn2[nH]c(C)cc2=O)cc1 [Compound 91, 1,2-dihydro-3-methyl-1-((6-methyl-2-p-tolyl-H-imidazo[1,2-a]pyridin-3-yl)methyl)pyrazol-5-one]	++ (percentage of inhibition of central BZD site binding is greater than 80% in the presence of 1000 nM of the compound)
Cc1ccc(-c2nc3ccc(C)cn3c2CN2CCN(C)C2=O)cc1 [Compound 92, 1-methyl-3-((6-methyl-2-p-tolylH-imidazo[1,2-a]pyridin-3-yl)methyl)imidazolidin-2-one]	++ (percentage of inhibition of central BZD site binding is greater than 80% in the presence of 1000 nM of the compound)
CCC1=C(C)CN(Cc2c(-c3ccc(C)cc3)nc3ccc(C)cn23)C1=O [Compound 93, 3-ethyl-4-methyl-1-((6-methyl-2-p-tolyl-H-imidazo[1,2-a]pyridin-3-yl)methyl)-1H-pyrrol-2(5H)-one]	++ (percentage of inhibition of central BZD site binding is greater than 80% in the presence of 1000 nM of the compound)
COC1=CC(=O)N(Cc2c(-c3ccc(C)cc3)nc3ccc(C)cn23)C1 [Compound 94, 4-methoxy-1-((6-methyl-2-p-tolyl-H-imidazo[1,2-a]pyridin-3-yl)methyl)-1H-pyrrol-2(5H)-one]	++ (percentage of inhibition of central BZD site binding is greater than 80% in the presence of 1000 nM of the compound)
Cc1ccc(-c2nc3ccc(C)cn3c2CN2CCCCC2=O)cc1 [Compound 95, 1-((6-methyl-2-p-tolyl-H-imidazo[1,2-a]pyridin-3-yl)methyl)piperidin-2-one]	++ (percentage of inhibition of central BZD site binding is greater than 80% in the presence of 1000 nM of the compound)
Cc1ccc(-c2nc3ccc(C)cn3c2Cn2ccccc2=O)cc1 [Compound 96, 1-((6-methyl-2-p-tolyl-H-imidazo[1,2-a]pyridin-3-yl)methyl)pyridin-2(1H)-one]	++ (percentage of inhibition of central BZD site binding is greater than 80% in the presence of 1000 nM of the compound)
Cc1ccc(-c2nc3ccc(C)cn3c2Cn2cccc(C)c2=O)cc1 [Compound 97, 3-methyl-1-((6-methyl-2-p-tolylH-imidazo[1,2-a]pyridin-3-yl)methyl)pyridin-2(1H)-one]	++ (percentage of inhibition of central BZD site binding is greater than 80% in the presence of 1000 nM of the compound)
Cc1ccc(-c2nc3ccc(C)cn3c2CN2C(=O)OC(C)(C)C2=O)cc1 [Compound 101, 5,5-dimethyl-3-((6-methyl-2-p-tolylH-imidazo[1,2-a]pyridin-3-yl)methyl)oxazolidine-2,4-dione]	++ (percentage of inhibition of central BZD site binding is greater than 80% in the presence of 1000 nM of the compound)
Cc1ccc(-c2nc3ccc(C)cn3c2CN2C(=O)CN(C)C2=O)cc1 [Compound 102, 1-methyl-3-((6-methyl-2-p-tolylH-imidazo[1,2-a]pyridin-3-yl)methyl)imidazolidine-2,4-dione]	+ (percentage of inhibition of central BZD site binding is greater than 50% but less than 80% in the presence of 1000 nM of the compound)
O=c1ccccn1Cc1c(-c2ccc(Cl)cc2)nc2ccc(Cl)cn12 [Compound 104, 1-((6-chloro-2-(4-chlorophenyl)H-imidazo[1,2-a]pyridin-3-yl)methyl)pyridin-2(1H)-one]	++ (percentage of inhibition of central BZD site binding is greater than 80% in the presence of 1000 nM of the compound)
